Data published in patent US11666555B2, “RelA inhibitors for biofilm disruption” (DREXEL UNIVERSITY, priority 2017, dated 2023).

Tests used:
Type in all cases: cell-based, Escherichia coli
[1] = system: E. coli C biofilm formation; assay: Biofilm Inhibition Test (crystal violet, OD570/OD600); settings: for effect on biofilm formation (crystal violet): 20 μg/mL
Protocol: Biofilm Inhibition Test—The biofilm inhibition was analyzed. For biofilm formation on a polystyrene surface, flat-bottom 96-well microtiter plates (Corning Inc.) were used. The effect of different compounds on biofilm formation was tested by adding compounds at specific concentrations to the bacterial culture (100× diluted overnight culture approx. 10^9 cells) in fresh LB medium. Two hundred microliters were aliquoted into 96 well plate and placed for 24 or 48 h into 37° C. incubator. Cell density was measured (OD600) using a Multiscan Go plate reader (ThermoFisher), and 30 μL of Gram crystal violet (Remel-3 g CV, 50 mL isopropanol, 50 mL ethanol and 900 mL of purified water) was applied for staining for 1 h. Plates were washed with water and air dried, and crystal violet was solubilized with an ethanol-acetone (4:1) solution. The OD570 was determined from this solution, and the biofilm amount was calculated as the ratio of OD570 to OD600. In order to check the effect of small molecules on biofilm formation, a biofilm inhibition experiment was designed. Compounds A and B were tested at concentration 20 μg/mL. The Innate defense regulator peptide-1018 (IDR-1018) (10 μg/mL) and serine hydroxamate (1 μg/mL) were also included.

E. coli C = assay: Bacterial growth curves in liquid culture (OD630); settings: for effect on bacterial growth (growth curves): liquid culture, 30, 20, 10 and 5 μg/mL, OD630, 18 h, FIG. 2
Protocol: The bacterial strain of Escherichia coli strain C was used as the model organism for initial screening. A Luria-Bertani (LB-Miller) medium was used as the full medium. Once the biofilms were grown, compounds S3-[…] and S3-G1B were tested for their ability to degrade and inhibit biofilm growth. […] This is likely due to the fact that the stringent response and RelA are not active when the cells are initially grown. Bacterial Growth-The effect of different compounds on bacterial growth was tested by adding compounds at specific concentrations to the bacterial culture (100× diluted overnight culture approx. 10^9 cells) in fresh LB medium. Two hundred microliters were aliquoted into a 96 well plate and placed into Biotek HT plate reader for 18 h at 37° C. Plates were shaken and the optical density (OD630) was measured every 15 min. Antibiotic Susceptibility Test-The antibiotic susceptibility was tested. For the liquid cultures, the minimum inhibitory concentrations (MICs) of the antimicrobial drugs were determined using 96 well plates and the broth dilution method. Suspensions were then incubated at 37° C. for 18 hours in the Biotek HT plate reader (see bacterial growth). For biofilm, the Biofilm Destruction Test discussed below was used with different antibiotic concentrations and the cell density was measured after 18 h. Bacterial concentration was calculated through optical density (OD630), and the lowest concentration causing 80% growth inhibition relative to the growth of the control was deemed to be the MIC. In order to test the effect of compounds on bacterial growth, liquid culture experiments were performed. The S3-[…] compound (hereinafter “compound A”) and S3-G1B compound (hereinafter “compound B”) were applied to the bacterial cultures at the concentrations of 30, 20, 10 and 5 μg/mL. The differences in bacterial growth curves in liquid cultures fortified with the test compounds were measured. The Escherichia coli strain C is sensitive to all types of antibiotics. To test the MIC of ampicillin, a standard growth curve experiment was run with different concentrations of antibiotics. […] Inoculum at 1000× dilution of overnight culture.

E. coli C biofilm = assay: Biofilm Destruction Test (biofilm persistence, crystal violet); settings: for effect on biofilm persistence / survival: two days biofilms, FIG. 6; for increase in biofilm persistence: 2 days old biofilm, 18 h, FIG. 7
Protocol: Biofilm Destruction Test—The biofilm destruction was determined. Biofilms were grown for 24 or 48 h as described above. After that time planktonic cells were removed, and biofilms were washed twice with 250 μL of sterile phosphate buffered saline (PBS) solution. Two hundred microliters of fresh LB medium with specific concentration of the tested compounds were dispensed into wells. After 18 h incubation at 37° C., the amount of biofilm was measured by CV staining as described above.
The effect of small molecules on biofilm persistence was tested. Two days biofilms were treated with compounds A and B as well as IDR-1018 and serine hydroxamate.
As described above, antibiotics affect bacterial cell survival in biofilms. Thus, the effect of antibiotic on biofilm persistence was tested. Ampicillin was applied on 2 days old biofilm and the amount of biofilm was analyzed after 18 h.

E. Coli biofilms = assay: Synergistic effect of compounds combined with ampicillin on biofilm; settings: in conjunction with ampicillin, FIG. 8
Protocol: The synergistic effect of compounds combined with antibiotics was tested. Biofilms were grown for 24, 48 or 72 h as described above. After that time planktonic cells were removed, and biofilms were washed twice with 250 μL of sterile phosphate buffered saline (PBS) solution. Two hundred microliters of fresh LB medium with specific concentration of the tested compounds and Ampicillin were dispensed into wells. After 18 h incubation at 37° C., the amount of biofilm was measured by CV staining as described above. For alamarBlue viability test, 4 μL of alamarBlue (Invitrogen) was added and plates were incubated in the Biotek HT plate reader at 37° C. for 4 h. Cell viability was measured as fluorescence at 530/590 nm (excitation/emission) versus compound concentration or initial cell density.
FIG. 8 highlights some of the data collected. […] As a positive control in these experiments IDR-1018 was utilized. IDR-1018 is a non-druggable antibiofilm peptide. IDR 1018 is a known biofilm disruptor that directly acts and degrades (p)ppGpp in cells (de la Fuente-Núñez 2014).

[2] = system: E. coli C cells in biofilm; assay: Antibiotic susceptibility of cells in biofilm (cell density after 18 h treatment); settings: 18 h treatment of 2-day biofilm
Protocol: Antibiotic Susceptibility Test—The antibiotic susceptibility was tested. For the liquid cultures, the minimum inhibitory concentrations (MICs) of the antimicrobial drugs were determined using 96 well plates and the broth dilution method. Suspensions were then incubated at 37° C. for 18 hours in the Biotek HT plate reader (see bacterial growth). For biofilm, the Biofilm Destruction Test discussed below was used with different antibiotic concentrations and the cell density was measured after 18 h. Bacterial concentration was calculated through optical density (OD630), and the lowest concentration causing 80% growth inhibition relative to the growth of the control was deemed to be the MIC. Biofilm Destruction Test—The biofilm destruction was determined. Biofilms were grown for 24 or 48 h as described above. After that time planktonic cells were removed, and biofilms were washed twice with 250 μL of sterile phosphate buffered saline (PBS) solution. Two hundred microliters of fresh LB medium with specific concentration of the tested compounds were dispensed into wells. After 18 h incubation at 37° C., the amount of biofilm was measured by CV staining as described above. As cells in the biofilm tend to be more resistant to antibiotics, similar ampicillin concentration was tested to check the effect of 18 h antibiotic treatment on 2-day biofilm growth. […] At 40 μg/mL, a decrease in cell growth was observed of 15%. Starting from 50 μg/mL the cell density was reduced from 53% to 5% (at 90 μg/mL) of the untreated control.

NC(CO)C(=O)NO (stereo not drawn) [Serine hydroxamate, serine hydroxamate, reference compound]
effect in biofilm inhibition experiment ([1]; 1 μg/mL, 24 h experiment): did not show any effect

CCCNc1ncc(-c2cc(-c3cc(C(=O)O)[nH]n3)nc(N)c2C#N)cn1 [Compound S3-G1B]
effect on bacterial growth (growth curves) (E. coli C): Neither compound showed any effect
effect on bacterial growth (growth curves) (E. coli C; listed as B): no effect
effect on the initial growth of biofilms [1]: did not show any effect
effect on biofilm formation (crystal violet) ([1]; FIG. 5B): slight increase
effect on biofilm persistence / survival (E. coli C biofilm): no significant effect
biofilm concentration compared to biofilms treated with just antibiotics (E. Coli biofilms): decreasing the biofilm concentration significantly
biofilm degradation compared with positive control IDR-1018 (E. Coli biofilms): outperform IDR-1018

IDR-1018 [reference compound]
planktonic growth lower than the untreated control ([1]; 10 μg/mL, FIG. 5A): 63%
biofilm lower than the untreated control ([1]; 10 μg/mL, FIG. 5B): 45%
effect on biofilm persistence / survival (E. coli C biofilm): smaller effect on biofilm destruction than on biofilm inhibition

CC1(C)S[C@@H]2[C@H](NC(=O)[C@H](N)c3ccccc3)C(=O)N2[C@H]1C(=O)O [ampicillin]
effect on planktonic growth curve (E. coli C; low ampicillin concentrations, FIG. 3): bacteriostatic effect with a prolonged lag phase
decrease in cell growth ([2]; 40 μg/mL): 15%
cell density, % of the untreated control ([2]; 50 μg/mL): 53%
cell density, % of the untreated control ([2]; 90 μg/mL): 5%
increase in biofilm persistence (E. coli C biofilm; Amp 10 (10 μg/mL)): 1.7 fold
increase in biofilm persistence (E. coli C biofilm; Amp 70 (70 μg/mL)): 5.9 fold

O=C(N[C@H](C(=O)O)c1ccc(Cl)cc1)c1cc(-c2ccc(O)cc2)n[nH]1 [Compound S3-G1A, (4-chlorophenyl)([(3-(4-hydroxyphenyl)-1H-pyrazol-5-yl]carbonyl)amino)acetic acid]
effect on bacterial growth (growth curves) (E. coli C): Neither compound showed any effect
effect on bacterial growth (growth curves) (E. coli C; listed as A): no effect
effect on the initial growth of biofilms [1]: did not show any effect
effect on biofilm formation (crystal violet) ([1]; FIG. 5B): slight increase
effect on biofilm persistence / survival (E. coli C biofilm): no significant effect
biofilm concentration compared to biofilms treated with just antibiotics (E. Coli biofilms): decreasing the biofilm concentration significantly
biofilm degradation compared with positive control IDR-1018 (E. Coli biofilms): outperform IDR-1018
